Laboratory results from US6331646A, “Amorphous N-[N-(3,3-dimethylbutyl)-L-α-aspartyl]-L-phenylalanine 1-methyl ester” (The NutraSweet Co., priority 1999, dated 2001).
Read-outs that look alike come from different tables or passages of the source.

Key:
[1] = Rate of dissolution compared to neotame monohydrate; type: physicochemical; conditions: in a variety of solvents commonly used in the food industry; FIG. 3 and FIG. 4 at 20° C.
Method: (§1) 25 grams of neotame was spread out equally on six containers and heated slowly past its melting point of about 82° C. until a temperature of about 92° C. was reached. […] Once 92° C. was reached, all of the neotame was melted. The containers containing the neotame were removed from the oven and allowed to cool to room temperature, about 23° C. The neotame was removed from the containers, and ground to a […] powder with a mortar and pestle. The x-ray diffraction pattern of the resulting amorphous neotame is illustrated in FIG. 1. Rates of dissolution and solubility measurements were then determined in several different solvent systems (deionized water; 0.1M phosphate (pH3) in water; 10:90 Ethanol (EtOH):H2 O; and 50:50 Ethyl Acetate (EtAc):Hexane) and compared to the conventional form of the neotame monohydrate. The solubility results are set forth below:
FIG. 3 illustrates a comparison of the dissolution of the amorphous neotame of Example 1 with neotame monohydrate in deionized water at 20° C. FIG. 4 illustrates a similar comparison in 0.1 M phosphate buffer.

Sweetening potency = conditions: amorphous neotame; "is believed to have"
[2] = Solubility measurements in several solvent systems; type: physicochemical; conditions: for Solubility, 10:90 EtOH:H2 O: 10:90 Ethanol (EtOH):H2 O; for Solubility, 50:50 EtAc:Hexane: 50:50 Ethyl Acetate (EtAc):Hexane
Method: as §1, with “monohydrate.” for “monohydrate. The solubility results are set forth below:”

[3] = known sweetener neotame; cited from earlier work

Row | rate of dissolution compared to that of the monohydrate form [1] | Solubility, 0.1 M Phosphate pH3 ([2]; 0.1M phosphate (pH3) in water) | Solubility, 10:90 EtOH:H2 O [2] | Solubility, 50:50 EtAc:Hexane [2] | Solubility, Water ([2]; deionized water) | solubility compared to that of the monohydrate form ([2]; in a variety of solvents commonly used in the food industry) | solubility ([2]; 0.1 m phosphate, pH 3, 0.1M phosphate (pH3) in water, read-out: Solubility, 0.1 M Phosphate pH3) [mg/mL] | solubility ([2]; water, deionized water, read-out: Solubility, Water) [mg/mL] | SMILES | sweetening potency relative to aspartame (believed) (Sweetening potency) | sweetening potency relative to aspartame [3] | sweetening potency relative to sucrose [3]
1 | reduced rate of dissolution | 1.49 grams of neotame/100 grams sol | 1.57 grams of neotame/100 grams sol | 3.07 grams of neotame/100 grams sol | 1.35 grams of neotame/100 grams sol | higher solubility | – | – | COC(=O)[C@H](Cc1ccccc1)NC(=O)[C@H](CC(=O)O)NCCC(C)(C)C [Example 1, amorphous N-[N-(3,3-dimethylbutyl)-L-α-aspartyl]-L-phenylalanine 1-methyl ester] | around 40 times that of aspartame | – | –
2 | – | – | 1.55 grams of neotame/100 grams sol | 1.29 grams of neotame/100 grams sol | – | – | 13.5 | 12.8 | COC(=O)[C@H](Cc1ccccc1)NC(=O)[C@H](CC(=O)O)NCCC(C)(C)C [Neotame Monohydrate, N-[N-(3,3-dimethylbutyl)-L-α-aspartyl]-L-phenylalanine 1-methyl ester] | – | – | –
3 | – | – | – | – | – | – | – | – | COC(=O)[C@H](Cc1ccccc1)NC(=O)[C@H](CC(=O)O)NCCC(C)(C)C [Neotame, N-[N-(3,3-dimethylbutyl)-L-α-aspartyl]-L-phenylalanine 1-methyl ester] | – | about 40 times that of aspartame | about 8,000 times that of sucrose
